Test results taken from patent publication US6339045B1, “N-(unsubstituted or substituted)-4-substituted-6-(unsubstituted or substituted)phenoxy-2-pyridinecarboxamides or thiocarboxamides, processes for producing the same, and herbicides” (Kureha Kagaku Kogyo Kabushiki Kaisha, priority 1995, dated 2002).

Tests used:
Test in all cases: Herbicidal effect by foliage and soil treatment
Format in all cases: in vivo
Conditions in all cases: 10 g ai/10a, evaluated after 14 days
[1] = system: kediock (Sinapis arvensis)
Source text: (§1) Experiment for Determination of Herbicidal Effect by Foliate and Soil Treatment Seeds of redroot pigweed (Amaranthus retroflexus), common blackjack (Bidens pilosa), kediock (Sinapis arvensis), common chickweed (Stellaria media), sicklepod (Cassia obtusifolia), black nightshade (Solanum nigrum), velvetleaf (Abutilon theophrasti), field bindweed (Convolvulus arvensis), wild chamomile (Matricaria chamomilla), cleavers (Galium aparine) and […] (Veronica hederaefolia), were uniformly sowed over a horticultural granular soil (produced by KUREHA CHEMICAL INDUSTRY, CO., LTD.; the same soil was used hereinafter) filled in a planter. The planter was placed in a greenhouse (maintained at 19 to 25° C.) to sprout these plants. Two seedlings of each sprouted plant were transplanted to a 10 cm-diameter pot filled with the horticultural granular soil and cultivated in the greenhouse (maintained at 19 to 25° C.) until reaching a cotyledonal to bifoliate period suited to the foliage and soil treatment. […] Next, additional amounts of Tween 20 and water were added to the obtained solution or suspension to produce a test solution. The plants prepared in the above (1) were placed within a frame having a predetermined inside area, and uniformly sprayed with the test solution using a sprayer such that the amount of each compound applied was controlled to a predetermined level. The plants sprayed with the test solution were placed again in the greenhouse (maintained at 19 to 25° C.) and cultivated therein. After 14 days, the degree of growth of each plant cultivated in the treated region was compared with that of plant cultivated in non-treated region, and evaluated according to the following ratings. The herbicidal activity of each test compound was represented by these ratings

[2] = system: ivyleafspeedwell (Veronica hederaefolia)
Source text: as §1

[3] = system: common chickweed (Stellaria media)
Source text: as §1

[4] = system: wild chamomile (Matricaria chamomilla)
Source text: as §1

[5] = system: common blackjack (Bidens pilosa)
Source text: as §1

[6] = system: field bindweed (Convolvulus arvensis)
Source text: as §1

[7] = system: black nightshade (Solanum nigrum)
Source text: as §1

[8] = system: sicklepod (Cassia obtusifolia)
Source text: as §1

[9] = system: velvetleaf (Abutilon theophrasti)
Source text: as §1

[10] = system: redroot pigweed (Amaranthus retroflexus)
Source text: as §1

[11] = system: cleavers (Galium aparine)
Source text: as §1

**Q.** With COc1cc(Oc2cccc(SC(F)(F)F)c2)nc(C(=O)NC(C)C)c1 [Compound I-40, N-(i-propyl)-4-methoxy-6-{3-(trifluoromethylmercapto)phenoxy}-2-pyridine carboxamide] as the compound, how does the “herbicidal activity rating, SA (Sinapis arvensis)” value (“herbicidal activity rating, SA” for short) [1] read?
**A.** 5 (percentage of weeds killed was not less than 80%)

**Q.** And the “herbicidal activity rating, VH (Veronica hederaefolia)” value (“herbicidal activity rating, VH” for short) [2]?
**A.** 5 (percentage of weeds killed was not less than 80%)

**Q.** What about the “herbicidal activity rating, SM (Stellaria media)” value (from here on “herbicidal activity rating, SM”) [3] of the same compound?
**A.** 5 (percentage of weeds killed was not less than 80%)

**Q.** What about the “herbicidal activity rating, MC (Matricaria chamomilla)” value (“herbicidal activity rating, MC” below) [4] of the same compound?
**A.** 4 (percentage of weeds killed was not less than 60% and less than 80%)

**Q.** And the “herbicidal activity rating, BP (Bidens pilosa)” value (“herbicidal activity rating, BP” for short) [5]?
**A.** 4 (percentage of weeds killed was not less than 60% and less than 80%)

**Q.** What about the “herbicidal activity rating, CA (Convolvulus arvensis)” value (from here on “herbicidal activity rating, CA”) [6] of the same compound?
**A.** 5 (percentage of weeds killed was not less than 80%)

**Q.** What about the “herbicidal activity rating, SN (Solanum nigrum)” value (“herbicidal activity rating, SN” for short) [7] of the same compound?
**A.** 5 (percentage of weeds killed was not less than 80%)

**Q.** What about the “herbicidal activity rating, CO (Cassia obtusifolia)” value (shortened to “herbicidal activity rating, CO”) [8] of the same compound?
**A.** 5 (percentage of weeds killed was not less than 80%)

**Q.** What about the “herbicidal activity rating, AT (Abutilon theophrasti)” value [9] of the same compound?
**A.** 5 (percentage of weeds killed was not less than 80%)

**Q.** And the “herbicidal activity rating, AR (Amaranthus retroflexus)” value (“herbicidal activity rating, AR” below) [10]?
**A.** 5 (percentage of weeds killed was not less than 80%)

**Q.** And the “herbicidal activity rating, GA (Galium aparine)” value (from here on “herbicidal activity rating, GA”) [11]?
**A.** 5 (percentage of weeds killed was not less than 80%)

**Q.** Which results are given for C=CCNC(=O)c1cc(OC)cc(Oc2cccc(C(F)(F)F)c2)n1 [Compound I-42]?
**A.** herbicidal activity rating, SA (Sinapis arvensis) [1]: 5 (percentage of weeds killed was not less than 80%); herbicidal activity rating, VH (Veronica hederaefolia) [2]: 5 (percentage of weeds killed was not less than 80%); herbicidal activity rating, SM (Stellaria media) [3]: 5 (percentage of weeds killed was not less than 80%); herbicidal activity rating, MC (Matricaria chamomilla) [4]: 4 (percentage of weeds killed was not less than 60% and less than 80%); herbicidal activity rating, BP (Bidens pilosa) [5]: 3 (percentage of weeds killed was not less than 40% and less than 60%); herbicidal activity rating, CA (Convolvulus arvensis) [6]: 4 (percentage of weeds killed was not less than 60% and less than 80%); herbicidal activity rating, SN (Solanum nigrum) [7]: 5 (percentage of weeds killed was not less than 80%); herbicidal activity rating, CO (Cassia obtusifolia) [8]: 5 (percentage of weeds killed was not less than 80%); herbicidal activity rating, AT (Abutilon theophrasti) [9]: 4 (percentage of weeds killed was not less than 60% and less than 80%); herbicidal activity rating, AR (Amaranthus retroflexus) [10]: 5 (percentage of weeds killed was not less than 80%); herbicidal activity rating, GA (Galium aparine) [11]: 5 (percentage of weeds killed was not less than 80%)

**Q.** Which “herbicidal activity rating, SA” value [1] does the source give for COc1cc(Oc2cccc(C(F)(F)F)c2)nc(C(=O)NC2CCCCC2)c1 [Compound I-43] here?
**A.** 5 (percentage of weeds killed was not less than 80%)

**Q.** And the “herbicidal activity rating, VH” value [2]?
**A.** 5 (percentage of weeds killed was not less than 80%)

**Q.** What about the “herbicidal activity rating, SM” value [3] of the same compound?
**A.** 5 (percentage of weeds killed was not less than 80%)

**Q.** What about the “herbicidal activity rating, MC” value [4] of the same compound?
**A.** 4 (percentage of weeds killed was not less than 60% and less than 80%)

**Q.** What about the “herbicidal activity rating, BP” value [5] of the same compound?
**A.** 4 (percentage of weeds killed was not less than 60% and less than 80%)

**Q.** And the “herbicidal activity rating, CA” value [6]?
**A.** 5 (percentage of weeds killed was not less than 80%)

**Q.** What about the “herbicidal activity rating, SN” value [7] of the same compound?
**A.** 5 (percentage of weeds killed was not less than 80%)

**Q.** What about the “herbicidal activity rating, CO” value [8] of the same compound?
**A.** 5 (percentage of weeds killed was not less than 80%)

**Q.** What about the “herbicidal activity rating, AT (Abutilon theophrasti)” value [9] of the same compound?
**A.** 4 (percentage of weeds killed was not less than 60% and less than 80%)

**Q.** And the “herbicidal activity rating, AR” value [10]?
**A.** 5 (percentage of weeds killed was not less than 80%)

**Q.** And the “herbicidal activity rating, GA” value [11]?
**A.** 5 (percentage of weeds killed was not less than 80%)

**Q.** Which “herbicidal activity rating, SA” value [1] does the source give for CCNC(=S)c1cc(OC)cc(Oc2cccc(C(F)(F)F)c2)n1 [Compound I-44] here?
**A.** 5 (percentage of weeds killed was not less than 80%)

**Q.** What about the “herbicidal activity rating, VH” value [2] of the same compound?
**A.** 5 (percentage of weeds killed was not less than 80%)

**Q.** And the “herbicidal activity rating, SM” value [3]?
**A.** 5 (percentage of weeds killed was not less than 80%)

**Q.** And the “herbicidal activity rating, MC” value [4]?
**A.** 3 (percentage of weeds killed was not less than 40% and less than 60%)

**Q.** And the “herbicidal activity rating, BP” value [5]?
**A.** 4 (percentage of weeds killed was not less than 60% and less than 80%)

**Q.** And the “herbicidal activity rating, CA” value [6]?
**A.** 4 (percentage of weeds killed was not less than 60% and less than 80%)

**Q.** And the “herbicidal activity rating, SN” value [7]?
**A.** 5 (percentage of weeds killed was not less than 80%)

**Q.** What about the “herbicidal activity rating, CO” value [8] of the same compound?
**A.** 5 (percentage of weeds killed was not less than 80%)

**Q.** And the “herbicidal activity rating, AT (Abutilon theophrasti)” value [9]?
**A.** 4 (percentage of weeds killed was not less than 60% and less than 80%)

**Q.** What about the “herbicidal activity rating, AR” value [10] of the same compound?
**A.** 5 (percentage of weeds killed was not less than 80%)

**Q.** What about the “herbicidal activity rating, GA” value [11] of the same compound?
**A.** 5 (percentage of weeds killed was not less than 80%)

**Q.** For COc1cc(Oc2cccc(C(F)(F)F)c2)nc(C(=O)NCc2ccccc2)c1 [Compound I-45, N-benzyl-4-methoxy-6-{3-(trifluoromethyl)phenoxy}-2-pyridine carboxamide], which “herbicidal activity rating, SA” value [1] is on record?
**A.** 5 (percentage of weeds killed was not less than 80%)

**Q.** What about the “herbicidal activity rating, VH” value [2] of the same compound?
**A.** 5 (percentage of weeds killed was not less than 80%)

**Q.** And the “herbicidal activity rating, SM” value [3]?
**A.** 5 (percentage of weeds killed was not less than 80%)

**Q.** What about the “herbicidal activity rating, MC” value [4] of the same compound?
**A.** 2 (percentage of weeds killed was not less than 20% and less than 40%)

**Q.** What about the “herbicidal activity rating, BP” value [5] of the same compound?
**A.** 5 (percentage of weeds killed was not less than 80%)

**Q.** What about the “herbicidal activity rating, CA” value [6] of the same compound?
**A.** 5 (percentage of weeds killed was not less than 80%)

**Q.** What about the “herbicidal activity rating, SN” value [7] of the same compound?
**A.** 5 (percentage of weeds killed was not less than 80%)

**Q.** What about the “herbicidal activity rating, CO” value [8] of the same compound?
**A.** 5 (percentage of weeds killed was not less than 80%)

**Q.** What about the “herbicidal activity rating, AT (Abutilon theophrasti)” value [9] of the same compound?
**A.** 4 (percentage of weeds killed was not less than 60% and less than 80%)

**Q.** And the “herbicidal activity rating, AR” value [10]?
**A.** 5 (percentage of weeds killed was not less than 80%)

**Q.** What about the “herbicidal activity rating, GA” value [11] of the same compound?
**A.** 5 (percentage of weeds killed was not less than 80%)

**Q.** What does the source list for CNC(=O)c1cc(OC)cc(Oc2cccc(C(F)(F)F)c2)n1 [Compound I-46]?
**A.** herbicidal activity rating, SA (Sinapis arvensis) [1]: 5 (percentage of weeds killed was not less than 80%); herbicidal activity rating, VH (Veronica hederaefolia) [2]: 5 (percentage of weeds killed was not less than 80%); herbicidal activity rating, SM (Stellaria media) [3]: 5 (percentage of weeds killed was not less than 80%); herbicidal activity rating, MC (Matricaria chamomilla) [4]: 3 (percentage of weeds killed was not less than 40% and less than 60%); herbicidal activity rating, BP (Bidens pilosa) [5]: 3 (percentage of weeds killed was not less than 40% and less than 60%); herbicidal activity rating, CA (Convolvulus arvensis) [6]: 5 (percentage of weeds killed was not less than 80%); herbicidal activity rating, SN (Solanum nigrum) [7]: 5 (percentage of weeds killed was not less than 80%); herbicidal activity rating, CO (Cassia obtusifolia) [8]: 5 (percentage of weeds killed was not less than 80%); herbicidal activity rating, AT (Abutilon theophrasti) [9]: 4 (percentage of weeds killed was not less than 60% and less than 80%); herbicidal activity rating, AR (Amaranthus retroflexus) [10]: 5 (percentage of weeds killed was not less than 80%); herbicidal activity rating, GA (Galium aparine) [11]: 5 (percentage of weeds killed was not less than 80%)
